Read-outs that look alike come from different tables or passages of the source.
Tests used:
nucleated cells = conditions: T = 3 h; average of 5 donors; 80 μg/kg s.c.
progenitor cells = conditions: AMD3100 5 mg/Kg s.c. + MIP-1α 5 μg I.V., 11 hours after rhu G-CSF or saline, 1 hour prior to assessing the blood
Experimental: Groups of mice were randomized to receive control diluent (saline) or G-CSF at a dose of 2.5 μg per mouse, twice a day, for two days via s.c. injection. […] One hour later, the mice were sacrificed and the number of progenitor cells per mL of blood were measured.

CXCR4 chemokine receptor = CXCR4 chemokine receptor (Homo sapiens, UniProt P61073); conditions: Gerlach, et al., J.Biol. Chem. (2001); cited from earlier work
[1] = system: granulocyte macrophage (CFU-GM), erythroid (BFU-E), and multipotential (CFU-GEMM) progenitor cells
Experimental: (§1) Five healthy human volunteers having initial white blood cell counts of 4,500–7,500 cells/mm^3 were used in the study. […] Blood samples were obtained via catheter prior to the dose, and at various times up to 24 hours after dosing.
(§2) All progenitor cell results are based on the scoring of 3 culture plates per assay per point.
(§3) For the progenitor cell numbers and cycling status, the numbers of CFU-GM, BFU-E and CFU-GEMM in methylcellulose cultures by stimulation of the cells with 1 Unit (U)/ml recombinant human (rhu) erythropoietin, 100 U/ml rhu granulocyte-macrophage colony stimulating factor (GM-CSF), 100 U/ml rhu interleukin-3 (IL-3) and 50 ng/ml rhu steel factor (SLF=stem cell factor (SCF)). The CFU-GM were also evaluated in agar cultures stimulated with 100 U/ml rhu GM-CSF and 50 ng/ml rhu SLF. For both types of assays, colonies were scored after 14 day incubation in a humidified atmosphere with 5% CO2 and lowered (5%) O2 tension. Cell cycling status of progenitors was measured using a high specific activity tritiated thymidine kill technique as previously described (Broxmeyer, H. E., et al., Exp. Hematol. (1989) 17:455–459).

CFU-GM = conditions: 80 μg/kg s.c.
Experimental: as §1, §2, §3

[2] = system: rats with ligated left coronary artery; conditions: administered within hours after induction of cardiac ischemia, with or without rhG-CSF
Experimental: Adult rats are anesthetized and a thoracotomy is performed. The descending branch of the left coronary artery is ligated and not reperfused. […] Control rats are not treated with the reagents. The animals are monitored at one-week intervals by echocardiography and MRI. The experiment is terminated at 2, 6 to 12 weeks post-surgery. On the day of sacrifice, the hemodynamic functions are analyzed for left ventricle-end diastolic pressure, left ventricle-developed pressure and the rate of rise and fall of left ventricle pressure. The heart is then arrested in diastole and perfuised via the abdominal aorta to flush residual blood from the vascular network of the myocardium. This is followed by perfusion of the heart with 10% formalin. Several slices are made through the fixed heart and these are embedded in paraffin and sections. The sections are stained and analyzed by light microscopy to determine the size of the infarct in the treated and control animals. Tissue sections from hearts taken at 2 weeks after surgery are stained with antibodies specific for immature, developing myocyte and blood vessel proteins and analyzed by confocal microscopy. The immunohistochemical analysis involves the identification of transcription factors and surface markers expressed in early stages of myocyte development.

WBC = conditions: single dose of 80 μg/kg; Phase 1 study (Liles, et al.); cited from earlier work
[3] = system: circulating CD34+ progenitor/stem cells; conditions: single dose of 80 μg/kg; 6 hour time point; Phase 1 study (Liles, et al.); cited from earlier work
[4] = system: progenitors in DNA synthesis (S) phase; conditions: prior to and 1, 3, 6, 9 and 24 hours after injection
Experimental: For the progenitor cell numbers and cycling status, the numbers of CFU-GM, BFU-E and CFU-GEMM in methylcellulose cultures by stimulation of the cells with 1 Unit (U)/ml recombinant human (rhu) erythropoietin, 100 U/ml rhu granulocyte-macrophage colony stimulating factor (GM-CSF), 100 U/ml rhu interleukin-3 (IL-3) and 50 ng/ml rhu steel factor (SLF=stem cell factor (SCF)). […] For both types of assays, colonies were scored after 14 day incubation in a humidified atmosphere with 5% CO2 and lowered (5%) O2 tension. Cell cycling status of progenitors was measured using a high specific activity tritiated thymidine kill technique as previously described (Broxmeyer, H. E., et al., Exp. Hematol. (1989) 17:455–459).

CXCR4 chemokine receptor, sequence (P61073 whole entry): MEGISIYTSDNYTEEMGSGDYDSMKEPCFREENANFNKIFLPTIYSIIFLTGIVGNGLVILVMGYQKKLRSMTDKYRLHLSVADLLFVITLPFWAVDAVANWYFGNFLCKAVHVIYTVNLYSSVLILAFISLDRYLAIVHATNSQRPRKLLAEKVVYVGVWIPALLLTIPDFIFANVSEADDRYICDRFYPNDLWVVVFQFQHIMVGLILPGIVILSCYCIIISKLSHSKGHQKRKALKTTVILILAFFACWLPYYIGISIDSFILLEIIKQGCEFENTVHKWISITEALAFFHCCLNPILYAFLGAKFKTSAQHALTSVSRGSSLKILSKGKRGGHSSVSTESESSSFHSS

Structure (SMILES): c1cc(CN2CCCNCCNCCCNCC2)ccc1CN1CCCNCCNCCCNCC1 [AMD3100, 1,1′-[1,4-phenylene-bis(methylene)]-bis-1,4,8,11-tetraazacyclotetradecane]
- PBL-LD nucleated cellularity Fold Change Compared to TIME = 0, MEAN (nucleated cells): 2.86 fold
- PBL-US nucleated cellularity Fold Change Compared to TIME = 0, MEAN (nucleated cells): 2.80 fold
- mobilization of progenitor cells in combination with mu MIP-1α (progenitor cells): additive to greater than additive
- action at the CXCR4 chemokine receptor (CXCR4 chemokine receptor): antagonist
- CFU-GEMM methylcellulose culture fold change from T=0 ([1]; P1, T = 1 h, 80 μg/kg s.c.): 2.07 fold
- CFU-GEMM methylcellulose culture fold change from T=0 ([1]; P1, T = 24 h, 80 μg/kg s.c.): 1.12 fold
- CFU-GM methylcellulose culture fold change from T=0 ([1]; P1, T = 24 h, 80 μg/kg s.c.): 1.10 fold
- BFU-E methylcellulose culture fold change from T=0 ([1]; P2, T = 1 h, 80 μg/kg s.c.): 1.48 fold
- BFU-E methylcellulose culture fold change from T=0 ([1]; P3, T = 1 h, 80 μg/kg s.c.): 2.30 fold
- CFU-GM methylcellulose culture fold change from T=0 ([1]; P3, T = 1 h, 80 μg/kg s.c.): 3.70 fold
- CFU-GEMM methylcellulose culture fold change from T=0 ([1]; P3, T = 9 h, 80 μg/kg s.c.): 2.47 fold
- CFU-GEMM methylcellulose culture fold change from T=0 ([1]; P3, T = 24 h, 80 μg/kg s.c.): 0.69 fold
- BFU-E methylcellulose culture fold change from T=0 ([1]; P4, T = 3 h, 80 μg/kg s.c.): 2.60 fold
- CFU-GEMM methylcellulose culture fold change from T=0 ([1]; P4, T = 6 h, 80 μg/kg s.c.): 9.10 fold
- BFU-E methylcellulose culture fold change from T=0 ([1]; P4, T = 24 h, 80 μg/kg s.c.): 0.79 fold
- CFU-GEMM methylcellulose culture fold change from T=0 ([1]; P4, T = 24 h, 80 μg/kg s.c.): 0.98 fold
- CFU-GEMM methylcellulose culture fold change from T=0 ([1]; P5, T = 3 h, 80 μg/kg s.c.): 4.43 fold
- CFU-GM methylcellulose culture fold change from T=0 ([1]; P5, T = 3 h, 80 μg/kg s.c.): 8.40 fold
- BFU-E methylcellulose culture % CHG ([1]; T = 1 h, mean of five donors, 80 μg/kg s.c.): 98.9%
- time of maximal fold increases in circulating levels of progenitor cells ([1]; after injection, all five donors): 6 h
- CFU-GM agar culture fold change from T=0 (CFU-GM; P4, T = 24 h): 1.30 fold
- CFU-GM agar culture fold change from T=0 (CFU-GM; P5, T = 3 h): 6.40 fold
- CFU-GM agar culture fold change from T=0 (CFU-GM; P5, T = 24 h): 2.20 fold
- cardiac remodeling and scar formation [2]: block to cardiac remodeling and scar formation
- mobilization of bone marrow stem cells [2]: mobilizes bone marrow stem cells rapidly
- regeneration of myocardium [2]: regeneration of the dead myocardium
- WBC count (WBC): 17,000 / μl
- peak increase in circulating CD34+ progenitor/stem cells [3]: 6 fold
- cycling state of progenitors [4]: slow or non-cycling state

Reference: patent US7169750B2, “Methods to mobilize progenitor/stem cells” (Anormed, Inc., priority 2001, dated 2007)
